We go through three compounds from patent US11377453B2, “Crystal of compound having JAK-inhibiting activity” (NIPPON SHINYAKU CO., LTD., priority 2016, dated 2022).

What all share (format): biochemical
For one assay, the target named is T1, JAK2 (Homo sapiens, UniProt O60674).
T1 construct: purchased Carna Biosciences, Inc
The assay can be described thus: JAK tyrosine kinase inhibitory activity in the presence of 1 mM ATP (ELISA), JAK2. On the procedure: (§1) The test compound was dissolved in dimethyl sulfoxide (DMSO) to 10 mM and further diluted with DMSO to the concentrations of 1000, 100, 10, 1, 0.1 and 0.01 μM, respectively. For JAK1, these solutions of the test compound at the six concentrations 10 mM, 1000 μM, 100 μM, 10 μM, 1 μM and 0.1 μM were used. For JAK2 and JAK3, these solutions of the test compound at the six concentrations 1000 μM, 100 μM, 10 μM, 1 μM, 0.1 μM and 0.01 μM were used. The test compound solutions were diluted further to 20-fold with an assay buffer to obtain a sample solution. 15 mM Tris-HCl (pH7.5), 0.01 (v/v) % Tween-20 and 1 mM dithiothreitol were used as an assay buffer. DMSO was diluted to 20-fold with the assay buffer and was used as a negative control.
(§2) The activity was determined by ELISA method. Each of the sample solutions was added to a streptavidin coated 96-well plate (DELFIA Strip Plate 8×12 well, PerkinElmer) at 10 μL/well (n=2). […] Finally, JAK tyrosine kinase (Carna Biosciences, Inc.), which was previously diluted with the assay buffer to 7.5 nM for JAK1 and 0.75 nM for JAK2 and JAK3, was added to the plate at 20 μL/well, and the plate was incubated at 30° C. for 1 h. The plate was washed four times with buffer (50 mM Tris-HCl (pH 7.5), 150 mM NaCl, 0.02 (v/v) % Tween-20). A blocking buffer (0.1% Bovine Serum Albumin, 50 mM Tris-HCl (pH 7.5), 150 mM NaCl, 0.02 (v/v) % Tween-20) was added to the plate at 150 μL/well, and the plate was blocked at 30° C. for 1 h. The blocking buffer was removed, and a horse radish peroxidase-labeled anti-phosphorylated tyrosine antibody (BD Biosciences, Inc.) (diluted to 10000-fold with the blocking buffer) was added to the plate at 100 μL/well, and the plate was incubated at 30° C. for 30 min. The plate was washed with the washing buffer four times, and 3,3′,5,5′-tetramethylbenzidine solution (Nacalai Tesque) was added to the plate at 100 μL/well to develop the color for 10 minutes. To the plate was added 0.1 M sulfuric acid at 100 μL/well to stop the reaction. The absorbance at 450 nm was measured using a microplate reader (BIO-RAD).

The next assay deals with T2, JAK1 (Homo sapiens, UniProt P23458).
T2 construct: purchased Carna Biosciences, Inc
T2 sequence (P23458 whole entry): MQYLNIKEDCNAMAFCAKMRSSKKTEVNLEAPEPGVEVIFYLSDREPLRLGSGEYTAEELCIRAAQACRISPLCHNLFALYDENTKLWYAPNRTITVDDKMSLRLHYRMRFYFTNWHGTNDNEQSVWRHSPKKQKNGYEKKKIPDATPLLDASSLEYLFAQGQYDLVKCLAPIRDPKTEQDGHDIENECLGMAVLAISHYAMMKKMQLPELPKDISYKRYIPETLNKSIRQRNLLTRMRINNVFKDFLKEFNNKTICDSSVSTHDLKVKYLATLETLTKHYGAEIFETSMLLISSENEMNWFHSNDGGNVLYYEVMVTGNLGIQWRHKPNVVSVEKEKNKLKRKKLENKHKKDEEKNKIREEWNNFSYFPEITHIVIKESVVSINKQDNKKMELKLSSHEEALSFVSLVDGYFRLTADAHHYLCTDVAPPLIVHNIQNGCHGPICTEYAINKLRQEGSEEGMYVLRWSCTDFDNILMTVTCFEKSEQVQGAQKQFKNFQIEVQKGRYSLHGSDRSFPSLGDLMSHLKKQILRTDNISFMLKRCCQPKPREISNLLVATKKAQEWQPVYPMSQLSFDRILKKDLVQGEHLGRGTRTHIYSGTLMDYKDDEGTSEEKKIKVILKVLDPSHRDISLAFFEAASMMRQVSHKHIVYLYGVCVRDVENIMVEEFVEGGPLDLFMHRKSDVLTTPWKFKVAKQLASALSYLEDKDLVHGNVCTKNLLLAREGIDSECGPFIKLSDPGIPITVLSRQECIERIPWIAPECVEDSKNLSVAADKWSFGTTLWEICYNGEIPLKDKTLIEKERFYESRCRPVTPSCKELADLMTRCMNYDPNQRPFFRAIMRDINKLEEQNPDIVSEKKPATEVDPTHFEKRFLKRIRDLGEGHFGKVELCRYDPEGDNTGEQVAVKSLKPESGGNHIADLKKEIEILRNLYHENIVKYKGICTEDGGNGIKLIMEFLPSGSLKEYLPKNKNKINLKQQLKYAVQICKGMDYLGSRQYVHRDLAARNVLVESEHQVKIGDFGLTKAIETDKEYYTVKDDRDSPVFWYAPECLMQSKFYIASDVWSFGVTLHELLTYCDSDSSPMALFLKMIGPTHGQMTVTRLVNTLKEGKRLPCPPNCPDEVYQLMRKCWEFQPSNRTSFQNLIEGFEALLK
Briefly: JAK tyrosine kinase inhibitory activity in the presence of 1 mM ATP (ELISA), JAK1. On the procedure: as §1, §2

For another assay, the target named is T3, JAK3 (Homo sapiens, UniProt P52333).
T3 construct: purchased Carna Biosciences, Inc
T3 sequence (P52333 1-1124): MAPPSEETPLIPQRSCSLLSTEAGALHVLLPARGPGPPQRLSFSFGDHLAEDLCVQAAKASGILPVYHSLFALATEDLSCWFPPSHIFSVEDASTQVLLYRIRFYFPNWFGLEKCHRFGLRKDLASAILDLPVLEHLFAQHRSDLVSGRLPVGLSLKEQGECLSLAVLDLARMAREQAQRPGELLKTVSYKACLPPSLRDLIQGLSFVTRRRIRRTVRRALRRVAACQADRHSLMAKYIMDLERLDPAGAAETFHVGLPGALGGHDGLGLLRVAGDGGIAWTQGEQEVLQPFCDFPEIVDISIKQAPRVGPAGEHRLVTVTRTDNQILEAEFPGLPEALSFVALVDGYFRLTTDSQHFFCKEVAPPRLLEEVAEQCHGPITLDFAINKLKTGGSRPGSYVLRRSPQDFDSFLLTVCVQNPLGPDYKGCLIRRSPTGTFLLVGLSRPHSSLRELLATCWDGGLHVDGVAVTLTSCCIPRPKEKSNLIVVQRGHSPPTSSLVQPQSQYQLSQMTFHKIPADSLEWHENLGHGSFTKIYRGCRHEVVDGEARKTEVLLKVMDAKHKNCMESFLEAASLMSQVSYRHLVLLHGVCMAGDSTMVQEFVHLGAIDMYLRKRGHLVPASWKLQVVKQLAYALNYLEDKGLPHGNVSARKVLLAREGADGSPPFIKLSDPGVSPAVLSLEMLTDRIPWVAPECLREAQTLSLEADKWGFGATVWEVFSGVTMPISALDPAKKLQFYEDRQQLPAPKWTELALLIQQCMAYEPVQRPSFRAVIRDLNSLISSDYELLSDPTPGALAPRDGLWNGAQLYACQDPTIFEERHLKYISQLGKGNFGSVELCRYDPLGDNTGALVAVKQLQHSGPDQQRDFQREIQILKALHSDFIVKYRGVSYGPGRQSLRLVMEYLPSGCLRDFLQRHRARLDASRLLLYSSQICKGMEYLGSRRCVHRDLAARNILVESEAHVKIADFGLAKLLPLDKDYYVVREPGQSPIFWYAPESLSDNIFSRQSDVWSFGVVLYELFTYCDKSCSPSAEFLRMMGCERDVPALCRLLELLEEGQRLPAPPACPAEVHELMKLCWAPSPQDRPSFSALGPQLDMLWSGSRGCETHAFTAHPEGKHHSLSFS
Briefly: JAK tyrosine kinase inhibitory activity in the presence of 1 mM ATP (ELISA), JAK3. The protocol: as §1, §2

Counter-ions that a name gives are not always drawn.

T1 sequence (O60674 whole entry): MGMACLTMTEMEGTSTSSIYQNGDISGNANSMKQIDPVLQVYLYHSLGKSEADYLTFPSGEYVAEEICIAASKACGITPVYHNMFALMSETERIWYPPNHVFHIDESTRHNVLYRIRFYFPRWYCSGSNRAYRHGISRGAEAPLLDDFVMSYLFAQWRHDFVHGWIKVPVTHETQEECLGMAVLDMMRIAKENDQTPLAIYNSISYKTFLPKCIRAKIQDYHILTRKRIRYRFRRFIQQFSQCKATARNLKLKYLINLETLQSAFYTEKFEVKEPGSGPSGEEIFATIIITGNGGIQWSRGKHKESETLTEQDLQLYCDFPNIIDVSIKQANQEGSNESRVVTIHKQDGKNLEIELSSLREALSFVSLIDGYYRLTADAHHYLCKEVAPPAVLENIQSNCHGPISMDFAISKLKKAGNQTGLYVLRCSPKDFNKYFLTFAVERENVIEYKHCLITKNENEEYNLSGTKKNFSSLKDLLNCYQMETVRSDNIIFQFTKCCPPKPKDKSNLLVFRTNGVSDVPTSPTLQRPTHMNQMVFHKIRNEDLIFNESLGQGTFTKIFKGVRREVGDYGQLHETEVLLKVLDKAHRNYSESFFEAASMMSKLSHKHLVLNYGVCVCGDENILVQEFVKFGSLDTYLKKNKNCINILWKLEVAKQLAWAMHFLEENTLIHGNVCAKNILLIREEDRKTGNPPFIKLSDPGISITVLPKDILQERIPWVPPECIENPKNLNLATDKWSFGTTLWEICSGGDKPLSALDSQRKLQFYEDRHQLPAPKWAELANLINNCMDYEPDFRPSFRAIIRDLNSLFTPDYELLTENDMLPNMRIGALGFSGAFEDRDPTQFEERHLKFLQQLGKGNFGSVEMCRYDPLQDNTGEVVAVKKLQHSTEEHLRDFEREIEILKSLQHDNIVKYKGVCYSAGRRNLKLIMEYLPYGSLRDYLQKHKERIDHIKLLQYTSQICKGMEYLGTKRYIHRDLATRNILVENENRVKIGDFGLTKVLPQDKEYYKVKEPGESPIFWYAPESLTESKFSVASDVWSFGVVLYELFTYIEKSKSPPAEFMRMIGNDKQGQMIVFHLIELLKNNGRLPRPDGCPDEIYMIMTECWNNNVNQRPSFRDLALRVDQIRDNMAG

On to `CC[C@@H](C)Nc1cc(C(=O)N2CCC(NC(=O)OC)CC2)nc(-c2cnn3ccsc23)n1` [Example 2, Methyl [1-({6-[(2R)-butan-2-ylamino]-2-(pyrazolo[5,1-b][1,3]thiazol-7-yl)pyrimidin-4-yl}carbonyl)piperidin-4-yl]carbamate Tosylate Monohydrate], for which the figures for the IC50 at JAK2, at JAK1 and at JAK3 were 5700 nM, 470 nM and 6000 nM, respectively.

Regarding `COC(=O)NC1CCN(C(=O)c2cc(N[C@@H](C)C3CC3)nc(-c3cnn4ccsc34)n2)CC1` [Example 3, Methyl (1-{[6-{[(1S)-1-cyclopropylethyl]amino}-2-(pyrazolo[5,1-b][1,3]thiazol-7-yl)pyrimidin-4-yl]carbonyl}piperidin-4-yl)carbamate Tosylate Monohydrate], the IC50 at JAK2 was 2600 nM; at JAK1, 270 nM; on JAK3, 1900 nM.

Turning to `CC[C@H](C)Nc1cc(C(=O)N2CCC(NC(=O)OC)CC2)nc(-c2cnn3ccsc23)n1` [Example 1, Methyl [1-({6-[(2S)-butan-2-ylamino]-2-(pyrazolo [5,1-b][1,3]thiazol-7-yl)pyrimidin-4-yl}carbonyl)piperidin-4-yl]carbamate Tosylate Monohydrate], the half-maximal inhibitory concentration (IC50) at JAK2 is 3700 nM; on JAK1, 310 nM; at JAK3, 3000 nM.
